Measurements published in ChEMBL document CHEMBL1152241, “Synthesis and recovery of high bioactive phenolics from table-olive brine process wastewater” (Bioorg Med Chem, 2008).
Values after ≈ are worked out from the molar mass of the structure shown. Active and inactive are the calls of the source. No cut-off for these calls is given here.

Columns and labels:
Bacillus subtilis = experiment: Antibacterial activity against Bacillus subtilis ATCC 6633 after 24 to 72 hrs at 30 degC by broth dilution susceptibility test; format: functional
Candida albicans = experiment: Antifungal activity against Candida albicans ATCC 10231 after 24 to 72 hrs at 28 degC by broth dilution susceptibility test; format: functional
Pseudomonas aeruginosa = experiment: Antibacterial activity against Pseudomonas aeruginosa ATCC 15442 after 24 to 72 hrs at 30 degC by broth dilution susceptibility test; format: functional
HeLa [1] = experiment: Cytotoxicity against human HeLa cells after 48 hrs by MTT assay; format: functional, cell-based
[2] = Antioxidant activity assessed as ferric ion reducing activity by FRAP assay; format: functional
Escherichia coli = experiment: Antibacterial activity against Escherichia coli ATCC 10536 after 24 to 72 hrs at 37 degC by broth dilution susceptibility test; format: functional
PBL = experiment: Cytotoxicity against human PBL after 48 hrs by MTT assay; format: cell-based
Salmonella enterica = experiment: Antibacterial activity against Salmonella enterica CIP 80.39 after 24 to 72 hrs at 37 degC by broth dilution susceptibility test; format: functional
[3] = Antioxidant activity assessed as trolox equivalent of ABTS radical scavenging activity; format: functional
[4] = system: Radical scavenging activity; experiment: Antioxidant activity assessed as DPPH radical scavenging activity after 30 mins; format: functional
Aspergillus niger = experiment: Antifungal activity against Aspergillus niger ATCC 16404 after 24 to 72 hrs at 28 degC by broth dilution susceptibility test; format: functional
DG-75 [5] = experiment: Cytotoxicity against human DG75 cells after 48 hrs by MTT assay; format: functional, cell-based; conditions: for IC50: DG-75, 48 h
Staphylococcus aureus = experiment: Antibacterial activity against Staphylococcus aureus ATCC 9144 after 24 to 72 hrs at 37 degC by broth dilution susceptibility test; format: functional
HeLa [6] = experiment: Antioxidant activity against ferrous ion-induced oxidative stress in human HeLa cells assessed as decrease in malondialdehyde formation at 10 ug/mL pretreated for 4 hrs before Fe2+ challenge by TBARS assay; format: functional, cell-based
HeLa [7] = experiment: Antioxidant activity against ferrous ion-induced oxidative stress in human HeLa cells assessed as decrease in malondialdehyde formation at 20 ug/mL pretreated for 4 hrs before Fe2+ challenge by TBARS assay; format: functional, cell-based
DG-75 [8] = experiment: Antioxidant activity against ferrous ion-induced oxidative stress in human DG75 cells assessed as decrease in malondialdehyde formation at 10 ug/mL pretreated for 4 hrs before Fe2+ challenge by TBARS assay; format: functional, cell-based
DG-75 [9] = experiment: Antioxidant activity against ferrous ion-induced oxidative stress in human DG75 cells assessed as decrease in malondialdehyde formation at 20 ug/mL pretreated for 4 hrs before Fe2+ challenge by TBARS assay; format: functional, cell-based

Row | Compound | MIC (Bacillus subtilis) [µg/mL] | MIC (Candida albicans) [µg/mL] | MIC (Pseudomonas aeruginosa) [µg/mL] | Activity (HeLa [1]) | IC50 (HeLa [1]) [µg/mL] | Activity [2] | MIC (Escherichia coli) [µg/mL] | Activity (PBL) | MIC (Salmonella enterica) [µg/mL] | Activity [3] | Activity [4] | MIC (Aspergillus niger) [µg/mL] | Activity (DG-75 [5]) | IC50 (DG-75 [5]) [µg/mL] | IC50 [4] [µg/mL] | MIC (Staphylococcus aureus) [µg/mL] | Activity (HeLa [6]) | Activity (HeLa [7]) | Activity (DG-75 [8]) | Activity (DG-75 [9])
1 | CC(=O)OCCc1ccc(OC(C)=O)c(OC(C)=O)c1 | 125 (≈ 446 µM) | 500 (≈ 1780 µM) | 250 (≈ 892 µM) | Dose-dependent effect | 92 (≈ 328 µM) | inactive | 250 (≈ 892 µM) | Not Active | 250 (≈ 892 µM) | inactive | inactive | 500 (≈ 1780 µM) | Dose-dependent effect | 27 (≈ 96.3 µM) | – | – | – | – | – | –
2 | Cc1cc(C(C)(C)C)c(O)c(C(C)(C)C)c1 [BUTYLATED HYDROXYTOLUENE] | – | – | – | – | – | – | – | – | – | 2.37 mmol | – | – | – | – | 7.94 (≈ 36 µM) | – | – | – | – | –
3 | OCCc1ccc(O)c(O)c1 [HYDROXYTYROSOL] | 62.5 (≈ 405 µM) | 125 (≈ 811 µM) | 125 (≈ 811 µM) | Dose-dependent effect | 70 (≈ 454 µM) | Active | 125 (≈ 811 µM) | Not Active | 125 (≈ 811 µM) | 3.4 mmol | – | 250 (≈ 1620 µM) | Dose-dependent effect | 58 (≈ 376 µM) | 3.71 (≈ 24.1 µM) | 62.5 (≈ 405 µM) | Active | Active | Active | Active
